This is an account of results in patent USRE38825E1, “Glyphosate tolerant plants” (Monsanto Technology LLC, priority 1990, dated 2005).

In assay [1] the target is LBAA glyphosate oxidoreductase variant v.247 (v1v2v3: GLY84, ARG153, ARG334), SEQ ID NO:18 (Ochrobactrum sp. G-1, UniProt D2KI28, H334R/K153R/S2A/S84G). The experiment in a line: Kinetic analysis of glyphosate oxidoreductase variant v.247. Format: biochemical, bacterial isolate LBAA (Pseudomonas strain LBAA). On the procedure: The mutagenesis procedure used was that of Mn++-poisoned PCR and the template was a linearized glyphosate oxidoreductase gene plasmid containing the synthetic glyphosate oxidoreductase gene (SEQ ID NO:8). The oligonucleotide primers used were homologous to regions in the vector and flanking the glyphosate oxidoreductase gene. The PCR conditions employed were as follows: 1 minute at 94° C., 2 minutes at 55° C., and 3 minutes at 72° C. and with 35 cycles. A 5:1 ratio of dCTP+dGTP+TTP to dATP was used. The reactions contained MnCl2 at 125, 250, 375, or 500 μM. After the reaction, the amplified product was recloned into a vector containing a weak E. coli promoter. This vector was a pBR327 derivative containing the araBAD promoter and suitable cloning sites. One hundred colonies from this cloning step were then screened in E. coli GB993 for improved glyphosate tolerance and utilization phenotypes in media composed of MOPS minimal medium with glyphosate and Pi or with glyphosate alone, respectively. Growth rates were determined by measuring A550 over a 96 hour period. […] The glyphosate oxidoreductase gene was recloned into the expression vector portion and this phenotype verified. All kinetic analysis was performed on crude E. coli lysates. Putative glyphosate oxidoreductase variant proteins were overexpressed after subcloning the NcoI/HindIII variant glyphosate oxidoreductase gene into PrecA-gene10L expression vector. For overexpression in PrecA-gene10L constructs, GB993 cells containing the vector were induced at a Klett=110-120 in M9 minimal medium with 50 μg/ml nalidixic acid and allowed to grow for 2.5 hours at 37° C. with vigorous shaking. Cells were harvested by centrifugation at 4000 g, 5 minutes at 4° C., and resuspend in 100 mM Tris-HCl, pH 7.1, 1 mM EDTA, 35 mM KCl, 20% glycerol, and 1 mM benzamidine at 3 ml/g cell pellet. Lysates were prepared by breaking the cells in a French press, twice, at 1000 psi. Insoluble debris was removed by centrifugation at 12000 g, 15 minutes at 4° C., and the supernatant was de-salted by passing over a PD-10 column (Sephadex G-25, Pharmacia). The void volume fraction was used as the source of enzyme for kinetic analysis. Protein concentrations were determined using the Bio-Rad protein dye-binding assay. Time and enzyme concentration courses were performed to determine linear ranges. […] Ten minutes was determined to be the optimal time for the enzyme assay using 10 μg lysate. After 10 minutes at 30° C. with shaking, 0.25 ml dinitrophenylhydrazine (DNPH) reagent (0.5 mg/ml in 0.5M HCl) was added and the reaction was allowed to proceed for an additional 5 minutes at 30° C. with shaking. A 1.5M NaOH solution (400 μl) was then added to the assay mix, and the reaction was continued for 5 minutes at 30° C. with shaking. Enzyme activity was determined from the amount of glyoxylate-DNPH adduct formed by measuring A520 against a standard of glyoxylate. Enzyme assays are performed in duplicate on at least two different single colony isolates of a putative glyphosate oxidoreductase variant. To determine Km and Vmax, enzyme assays were performed over a (0.2-2.0)×Km range of glyphosate concentrations. The Km and Vmax were determined from Lineweaver Burk, Eadie-Hofstee and hyperbolic kinetic plots. Vmax was estimated after determining the amount of immunoreactive glyphosate oxidoreductase protein in lysates by immunoblot analysis as described below. Immunoblot analysis was performed following SDS-PAGE and transfer of protein from the gel to nitrocellulose at 500 mA in a Hoeffer transfer apparatus in 25 mM Tris-HCl, 192 mM glycine containing 0.1% SDS and 25% methanol for 1-2 hours. After transfer, the nitrocellulose was incubated with 50 mM Tris-HCl, pH7.5, 0.9% NaCl, 0.01% Tween 20, 0.02% NaN3 containing 2% bovine serum albumin at room temperature with shaking for at least 30 minutes. […]

The subject of assay [2] is Pseudomonas sp. strain LBr glyphosate oxidoreductase. The experiment in a line: Km of glyphosate oxidoreductase from Pseudomonas sp. strain LBr. Format: biochemical. From the text: Using this PCR approach, glyphosate oxidoreductase genes from a number of sources have been isolated. The presence of the glyphosate oxidoreductase activity was confirmed by cloning the glyphosate oxidoreductase gene from chromosomal DNA prepared from Pseudomonas sp. strain LBr (Jacob et al., 1988) and using primers homologous to the N- and C-termini of the LBAA glyphosate oxidoreductase gene and containing the following suitable restriction cloning sites: 5′-[…] ATG-3′ (SEQ ID NO:13) and 5′-[…] AGTAC-3′ (SEQ ID NO:14). Cyclotherm parameters used for these PCR reactions is as follows: • Denature at 94° C. for 1 minute; • Anneal at 60° C. for 2 minutes; • Polymerize at 72° C. for 3 minutes, • 30 cycles, no autoextension, linked to 4° C. incubation. The expected ˜1.3 kb PCR produced was generated and following digestion with NdeI and HindIII, this fragment was cloned into pMON2123 for expression of the encoded enzyme.

Assay [3] addresses LBAA glyphosate oxidoreductase variant ARG 334 (His334 to Arg) (Ochrobactrum sp. G-1, UniProt D2KI28, H334R/S2A). In words: Kinetic analysis of glyphosate oxidoreductase variant ARG 334 (site-directed mutagenesis). The format is biochemical, bacterial isolate LBAA (Pseudomonas strain LBAA).
Assay [4] relates to Agrobacterium sp. strain T10 glyphosate oxidoreductase. The experiment in a line: Km of glyphosate oxidoreductase from Agrobacterium sp. strain T10. The format is biochemical. As to the method: A population of bacteria was isolated from a fixed-bed immobilized cell column, which employed Mannville R-635 diatomaceous earth beads, by plating on Tryptone Soy Agar (Difco), containing cylcoheximide at 100 ug/ml, and incubating at 28° C. The column had been run for three months on a waste-water feed from the Monsanto Company's Luling, MS, glyphosate production plant. The column contained 50 mg/ml glyphosate and NH3 as NH4Cl. Total organic carbon was 300 mg/ml and BOD's (Biological Oxygen Demand—a measure of “soft” carbon availability) was less than 30 mg/ml. This treatment column has been described (Heitkamp et al., 1990). […] Chromosomal DNA was prepared from this isolate and subjected to the same PCR procedure and with the same primers as described above for the strain LBr. A fragment of the correct size was generated and cloned into the E. coli expression vector. The glyphosate oxidoreductase activity was assayed and the Km for glyphosate also determined: […]

The Km is the substrate concentration at which the rate is half of its maximum. As to `O=C(O)CNCP(=O)(O)O` [glyphosate, N-phosphonomethyl-glycine], the VmKm in assay [1] (domain switch experiment, v.247 (v1v2v3), substrate glyphosate) is reported as 0.34. Moreover, the “VmKm (Glyp)” value in assay [1] (v.247) and in assay [3] was “.23” in each case. In addition, the “lower Km for glyphosate than the wild type glyphosate oxidoreductase” value in assay [1] (v.247 versus wild type) came to 10 fold. Further, the “app Vm (Glyp)” value in assay [1] (v.247, pH 7.4, 30° C.) was determined as 0.6 U/mg. In addition, the values for the Michaelis constant (Km) in assay [2] and in assay [4] were 25 mM and 28 mM, respectively.
